# Laboratory results published in patent US8552048B2, “Phosphoramidate alkylator prodrugs for the treatment of cancer” (Threshold Pharmaceuticals, Inc., priority 2006, dated 2013).
# Several values for one entry are separate records, joined by “and”; a condition that tells them apart may be missing. Equal entries are not always repeated. Where two headings read alike, the source gives them in different places.
# Experiment: Pharmacokinetics in Sprague-Dawley rats (single dose i.v. and p.o.)
# Assay type: in vivo, male Sprague-Dawley rats
# Protocol: Pharmacokinetic studies were performed in male CD-1 (50 mg/kg i.p. or orally (p.o.)) or female nude mice (50 mg/kg i.v. or i.p.), male Sprague-Dawley rats (1, 5, 20 and 50 mg/kg i.v. and 100 mg/kg, p.o.), beagle dogs (20 mg/kg, i.v.) and cynomologus monkeys (20 mg/kg i.v.). Plasma TH302 concentrations were analyzed using a LC/MS method and the pharmacokinetic parameters computed using a noncompartmental method. Interspecies scaling was performed according to standard methods.
# TH302 was dissolved in 50% PEG400/Saline to obtain a final concentration of 25 mg/mL, and then was further diluted to yield 25, 10, 2.5 and 0.5 mg/mL formulations of TH302 (pH The formulations were prepared just before dosing. The concentration of TH302 in dosing solution was confirmed by HPLC-UV. Male Sprague Dawley rats (body weight: 200 g to 230 g) were used in this study. Before the pharmacokinetic studies, animals were randomly assigned to four treatment groups cannulated in the carotid artery for serial blood sampling. All rats were administered a single intravenous bolus dose over one minute via the tail vein. The concentrations of TH302 in plasma were determined using a high performance liquid chromatography/mass spectrometry (HPLC/MS/MS) method. […]
# [1] = rats, 1 mg/kg i.v. bolus, individual animals, 1 mg/kg
# [2] = rats, 5 mg/kg i.v. bolus, individual animals, 5 mg/kg
# [3] = rats, 20 mg/kg i.v. bolus, individual animals, 20 mg/kg
# [4] = rats, 50 mg/kg i.v. bolus, individual animals, 50 mg/kg
structure (smiles),measurement,setting,value
Cn1c(COP(=O)(NCCBr)NCCBr)cnc1[N+](=O)[O-] [TH302],AUC(0-inf),"male, Sprague-Dawley, rat, plasma, iv, 50 mg/kg, rats, 50 mg/kg i.v. bolus, individual animals",8830 ng·h/mL
same,AUC(0-t),"male, Sprague-Dawley, rat, plasma, iv, 50 mg/kg, rats, 50 mg/kg i.v. bolus, individual animals, read-out: AUC(0-t)",8830 ng·h/mL
same,clearance,"male, Sprague-Dawley, rat, plasma, iv, 50 mg/kg, rats, 50 mg/kg i.v. bolus, individual animals, read-out: CL (converted)",94.3 mL/min/kg
same,Cmax,"male, Sprague-Dawley, rat, plasma, iv, 50 mg/kg, rats, 50 mg/kg i.v. bolus, individual animals, read-out: Cmax",37200 ng/mL
same,MRT,"male, Sprague-Dawley, rat, plasma, iv, 50 mg/kg, rats, 50 mg/kg i.v. bolus, individual animals, read-out: MRT",17.4 min
same,Vd,"male, Sprague-Dawley, rat, plasma, iv, 50 mg/kg, rats, 50 mg/kg i.v. bolus, individual animals, read-out: Vss",1.63 L/kg
same,AUC,"male, Sprague-Dawley, rat, plasma, iv, 50 mg/kg, rats, i.v. bolus, up to 8 mg/kg human equivalent daily dose, read-out: exposure of TH302, AUC",~8500 ng·h/mL
same,clearance,"male, Sprague-Dawley, rat, plasma, iv, rats, i.v. dose 1-50 mg/kg, range of means, read-out: Mean Cl",78.2 to 102 mL/min/kg
same,Vd,"male, Sprague-Dawley, rat, plasma, iv, rats, i.v. dose 1-50 mg/kg, range of means, read-out: mean Vss",1.67 to 5.09 L/kg
same,half-life,"male, Sprague-Dawley, rat, plasma, iv, rats, i.v. dose 1-50 mg/kg, range of means, read-out: mean terminal plasma t1/2",79.2 to 262 min
same,Tmax,"male, Sprague-Dawley, rat, plasma, iv, rats, 1 mg/kg i.v. bolus, individual animals",1.8 min
same,Tmax,"male, Sprague-Dawley, rat, plasma, iv, rats, 5 mg/kg i.v. bolus, individual animals",1.8 min
same,Tmax,"male, Sprague-Dawley, rat, plasma, iv, rats, 20 mg/kg i.v. bolus, individual animals",1.8 min
same,Tmax,"male, Sprague-Dawley, rat, plasma, iv, rats, 50 mg/kg i.v. bolus, individual animals",1.8 min
same,Vβ,"rats, 1 mg/kg i.v. bolus, MEAN",13.55 L/kg
same,AUC(0-t),[1],273.70 ng·h/mL and 202.22 ng·h/mL
same,AUC(0-∞),[1],282.01 ng·h/mL and 203.34 ng·h/mL
same,CL,[1],59.2 mL/min/kg
same,Cmax,[1],990.12 ng/mL and 732.20 ng/mL
same,MRT,[1],61.8 min
same,T1/2,[1],130 min and 131 min
same,Vss,[1],2.82 L/kg
same,Vβ,[1],14.19 L/kg and 11.03 L/kg and 15.45 L/kg
same,Vβ,"rats, 5 mg/kg i.v. bolus, MEAN",30.66 L/kg
same,AUC(0-t),[2],868.22 ng·h/mL
same,AUC(0-∞),[2],919.39 ng·h/mL
same,CL,[2],90.7 mL/min/kg
same,Cmax,[2],3803.81 ng/mL
same,MRT,[2],27 min and 81.6 min
same,T1/2,[2],73.2 min and 377 min
same,Vβ,[2],11.99 L/kg and 49.33 L/kg
same,Vβ,"rats, 20 mg/kg i.v. bolus, MEAN",41.04 L/kg
same,AUC(0-t),[3],3380.61 ng·h/mL and 3597.80 ng·h/mL
same,AUC(0-∞),[3],3387.13 ng·h/mL and 3618.51 ng·h/mL
same,CL,[3],92.2 mL/min/kg
same,Cmax,[3],12009.10 ng/mL and 15053.50 ng/mL
same,MRT,[3],24.6 min and 22.2 min
same,T1/2,[3],564 min and 64.8 min and 159 min
same,Vss,[3],1.68 L/kg
same,Vβ,[3],92.86 L/kg and 9.16 L/kg and 21.10 L/kg
same,Vβ,"rats, 50 mg/kg i.v. bolus, MEAN",11.41 L/kg
same,AUC(0-t),[4],8482.72 ng·h/mL and 8083.24 ng·h/mL
same,AUC(0-∞),[4],8488.15 ng·h/mL and 8102.61 ng·h/mL
same,CL,[4],98.2 mL/min/kg and 103 mL/min/kg
same,Cmax,[4],37277.10 ng/mL and 32033.40 ng/mL
same,MRT,[4],18 min and 15.6 min
same,T1/2,[4],46.2 min and 56.4 min and 134 min
same,Vss,[4],1.68 L/kg and 1.70 L/kg
same,Vβ,[4],6.28 L/kg and 7.99 L/kg and 19.94 L/kg
same,time of mean peak plasma concentration,"rats, 100 mg/kg p.o., first sampled time point",15 min
same,linearity of pharmacokinetics,"rats, 1, 5, 20 and 50 mg/kg i.v.",linear pharmacokinetics
